IC50 data for 20 compounds are collected here from patent publication US20250034159A1, “INHIBITORS OF EPIDERMAL GROWTH FACTOR RECEPTOR” (ORIC Pharmaceuticals, Inc., priority 2021, published 2025).

Read-outs that look alike come from different tables or passages of the source.

For assay [1], the target named is recombinant human EGFR exon 19 deletion/C797S double mutant protein (Homo sapiens (Human), UniProt P00533, C797S/DEL746-750). Nature of the assay: Biological Activity Assay C: biochemical assay against EGFR exon 19 deletion/C797S protein (EGFR d19/CS). The method in brief:
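IC50 values were fitted with a 4-parameter model to reaction slopes taken from 90 kinetic reads spaced 120 s apart. The Phosphosens sensor/ATP working solution was 40 uM/4 mM, and compound was dosed as 16-point dilutions at 2.5% final DMSO.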

A further assay deals with Ba/F3_EGFR WT cells. Nature of the assay: Biological Activity Assay D: BaF3 cell proliferation assay, EGFR wild-type (BaF3 WT). Type of assay: cell-based. The following applies: Ba/F3 EGFR, read-out: BaF3 WT IC50.
The test system of a further assay is BaF3_EGFR LR/CS cells. In words: Biological Activity Assay D: BaF3 cell proliferation assay, EGFR L858R/C797S mutant (BaF3 LR/CS). The assay is classed as cell-based. The settings on record: Ba/F3 EGFR, read-out: BaF3 LR/CS IC50.
The next assay deals with BaF3_EGFR d19/CS cells. In words: Biological Activity Assay D: BaF3 cell proliferation assay, EGFR exon 19 deletion/C797S (BaF3 d19/CS). The following applies: Ba/F3 EGFR, read-out: BaF3 d19/CS IC50. Type of assay: cell-based.
Setting [2] is: Ba/F3_EGFR WT cells, ~72 hours, CellTiter-Glo.
The mark [3] stands for this setting: BaF3_EGFR LR/CS cells, ~72 hours, CellTiter-Glo.
The mark [4] stands for this setting: BaF3_EGFR d19/CS cells, ~72 hours, CellTiter-Glo.

Sequence of recombinant human EGFR exon 19 deletion/C797S double mutant protein (P00533 other isoform, or with tags, fused parts or gaps C797S/del 1-668/del 746-750 limits assumed): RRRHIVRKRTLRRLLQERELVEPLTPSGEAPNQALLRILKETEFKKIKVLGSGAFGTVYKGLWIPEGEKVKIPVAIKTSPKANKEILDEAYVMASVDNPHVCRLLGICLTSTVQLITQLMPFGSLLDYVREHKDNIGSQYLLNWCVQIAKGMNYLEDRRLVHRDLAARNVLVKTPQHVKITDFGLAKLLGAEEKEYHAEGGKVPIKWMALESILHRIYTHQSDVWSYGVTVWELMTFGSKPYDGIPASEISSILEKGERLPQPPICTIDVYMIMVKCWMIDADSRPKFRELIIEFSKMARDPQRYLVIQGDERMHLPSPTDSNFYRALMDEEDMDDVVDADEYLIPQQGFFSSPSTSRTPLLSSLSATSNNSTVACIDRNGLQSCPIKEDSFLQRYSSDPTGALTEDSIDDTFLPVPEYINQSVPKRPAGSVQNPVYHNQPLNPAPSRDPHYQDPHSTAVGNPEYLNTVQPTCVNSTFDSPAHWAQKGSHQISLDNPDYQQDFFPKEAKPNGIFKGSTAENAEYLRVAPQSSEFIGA

On to `CC(=O)N1CCC=C(c2cc3c(-c4cn(CC(C)(C)O)nc4-c4ccc(F)cc4)ncnc3o2)C1` [Example 208, 1-[5-{4-[3-(4-fluorophenyl)-1-(2-hydroxy-2-methylpropyl)-1H-pyrazol-4-yl]furo[2,3-d]pyrimidin-6-yl}-3,6-dihydropyridin-1 (2H)-yl]ethan-1-one], for which the IC50 was 0.4 nM in assay [1], 1680 nM in the assay on Ba/F3_EGFR WT cells (setting [2]), 155 nM in the assay with BaF3_EGFR LR/CS cells (setting [3]) and 95.7 nM with BaF3_EGFR d19/CS cells (setting [4]).
Regarding `CC(=O)N1CCC=C(c2cc3c(-c4cn(C5CS(=O)(=O)C5)nc4-c4ccc(F)cc4)ncnc3o2)C1` [Example 209, 3-{4-[6-(1-acetyl-1,2,5,6-tetrahydropyridin-3-yl)furo[2,3-d]pyrimidin-4-yl]-3-(4-fluorophenyl)-1H-pyrazol-1-yl}-1λ6-thietane-1,1-dione], the IC50 in assay [1] came out at 0.44 nM; in the assay with Ba/F3_EGFR WT cells (setting [2]), 1940 nM; in the assay on BaF3_EGFR LR/CS cells (setting [3]) it was 296 nM; in the assay on BaF3_EGFR d19/CS cells (setting [4]) it was 160 nM.
For `C[C@@H]1C[C@H](n2cc(-c3ncnc4oc(-c5ccccc5)cc34)c(-c3ccc(F)cc3)n2)CN1S(C)(=O)=O` [Example 212, 4-{3-(4-fluorophenyl)-1-[(3S,5R)-1-(methanesulfonyl)-5-methylpyrrolidin-3-yl]-1H-pyrazol-4-yl}-6-phenylfuro[2,3-d]pyrimidine] the same measures were 0.37 nM, 87.8 nM, 6.71 nM and 5.28 nM.
For `CS(=O)(=O)CCCn1cc(-c2ncnc3[nH]c(-c4ccccc4)nc23)c(-c2ccc(F)cc2)n1` [Example 215, 6-{3-(4-fluorophenyl)-1-[3-(methanesulfonyl)propyl]-1H-pyrazol-4-yl}-8-phenyl-9H-purine] the same measures were 0.26 nM, 2340 nM, 30.8 nM and 83.5 nM.
`O=S1(=O)CC(n2cc(-c3ncnc4oc(-c5c[nH]cn5)cc34)c(-c3ccc(F)cc3)n2)C1` [Example 216, 3-{3-(4-fluorophenyl)-4-[6-(1H-imidazol-4-yl)furo[2,3-d]pyrimidin-4-yl]-1H-pyrazol-1-yl}-16-thietane-1,1-dione]: the IC50 came out at 0.06 nM in assay [1], 2130 nM in the assay with Ba/F3_EGFR WT cells (setting [2]), 31.1 nM with BaF3_EGFR LR/CS cells (setting [3]) and 58.5 nM in the assay with BaF3_EGFR d19/CS cells (setting [4]).
On to `Cn1cncc1-c1cc2c(-c3cn(C4CS(=O)(=O)C4)nc3-c3ccc(F)cc3)ncnc2o1` [Example 217, 3-{3-(4-fluorophenyl)-4-[6-(1-methyl-1H-imidazol-5-yl)furo[2,3-d]pyrimidin-4-yl]-1H-pyrazol-1-yl}-16-thietane-1,1-dione], for which the IC50 in assay [1] was 0.276 nM; in the assay on Ba/F3_EGFR WT cells (72 h), 1240 nM; with BaF3_EGFR LR/CS cells (72 h), 147 nM; with BaF3_EGFR d19/CS cells (72 h), 98.9 nM.
Consider `O=S1(=O)CC(n2cc(-c3ncnc4oc(-c5ccns5)cc34)c(-c3ccc(F)cc3)n2)C1` [Example 218, 3-{3-(4-fluorophenyl)-4-[6-(1,2-thiazol-5-yl)furo[2,3-d]pyrimidin-4-yl]-1H-pyrazol-1-yl}-1λ6-thietane-1,1-dione], for which the IC50 in assay [1] is 0.36 nM; in the assay on Ba/F3_EGFR WT cells (setting [2]), 1440 nM; in the assay with BaF3_EGFR LR/CS cells (setting [3]) it was 158 nM; in the assay with BaF3_EGFR d19/CS cells (setting [4]), 103 nM.
For `Fc1ccc(-c2nn([C@H]3C[C@H](F)C3)cc2-c2ncnc3oc(-c4ccccc4)cc23)cc1` [Example 219, 4-{1-[(1r,3r)-3-fluorocyclobutyl]-3-(4-fluorophenyl)-1H-pyrazol-4-yl}-6-phenylfuro[2,3-d]pyrimidine] the same measures were 1.53 nM, 4370 nM, 221 nM and 200 nM.
For `CC1(C)CC(Cn2cc(-c3ncnc4oc(-c5ccccc5)cc34)c(-c3ccc(F)cc3)n2)O1` (centres unmarked) [Example 220, 4-{1-[(4,4-dimethyloxetan-2-yl)methyl]-3-(4-fluorophenyl)-1H-pyrazol-4-yl}-6-phenylfuro[2,3-d]pyrimidine] the same measures were 0.55 nM, 1040 nM, 37.2 nM and 111 nM.
Taken in the same sequence, the figures for `Cc1noc(-c2cc3c(-c4cn(C5CS(=O)(=O)C5)nc4-c4ccc(F)cc4)ncnc3o2)n1` [Example 223, 3-{3-(4-fluorophenyl)-4-[6-(3-methyl-1,2,4-oxadiazol-5-yl)furo[2,3-d]pyrimidin-4-yl]-1H-pyrazol-1-yl}-1λ6-thietane-1,1-dione] were 21.6 nM, greater than 20000 nM, 2200 nM and 893 nM.
As to `Cc1ncc(-c2cc3c(-c4cn(C5CS(=O)(=O)C5)nc4-c4ccc(F)cc4)ncnc3o2)s1` [Example 224, 3-{3-(4-fluorophenyl)-4-[6-(2-methyl-1,3-thiazol-5-yl)furo[2,3-d]pyrimidin-4-yl]-1H-pyrazol-1-yl}-16-thietane-1,1-dione], the IC50 worked out at 0.14 nM in assay [1], 1450 nM in the assay on Ba/F3_EGFR WT cells (72 h), 26.6 nM in the assay on BaF3_EGFR LR/CS cells (72 h) and 37.7 nM with BaF3_EGFR d19/CS cells (72 h).
Take `CN(C)C(=O)c1ccccc1-c1cc2c(-c3cn(C4CS(=O)(=O)C4)nc3-c3ccc(F)cc3)ncnc2o1` [Example 228, 2-{4-[1-(1,1-dioxo-1λ6-thietan-3-yl)-3-(4-fluorophenyl)-1H-pyrazol-4-yl]furo[2,3-d]pyrimidin-6-yl}-N,N-dimethylbenzamide]: the IC50 was determined as 2.13 nM in assay [1], 4560 nM in the assay with Ba/F3_EGFR WT cells (setting [2]), 667 nM in the assay with BaF3_EGFR LR/CS cells (setting [3]) and 384 nM with BaF3_EGFR d19/CS cells (setting [4]).
Take `CNC(=O)c1ccccc1-c1cc2c(-c3cn(C4CS(=O)(=O)C4)nc3-c3ccc(F)cc3)ncnc2o1` [Example 229, 2-{4-[1-(1,1-dioxo-1λ6-thietan-3-yl)-3-(4-fluorophenyl)-1H-pyrazol-4-yl]furo[2,3-d]pyrimidin-6-yl}-N-methylbenzamide]: the IC50 amounted to 0.67 nM in assay [1], 3760 nM with Ba/F3_EGFR WT cells (setting [2]), 292 nM in the assay on BaF3_EGFR LR/CS cells (setting [3]) and 169 nM with BaF3_EGFR d19/CS cells (setting [4]).
As for `Fc1ccc(-c2nn(CCOC(F)F)cc2-c2ncnc3oc(-c4ccccc4)cc23)cc1` [Example 231, 4-{1-[2-(difluoromethoxy)ethyl]-3-(4-fluorophenyl)-1H-pyrazol-4-yl}-6-phenylfuro[2,3-d]pyrimidine], the IC50 worked out at 0.46 nM in assay [1], 660 nM with Ba/F3_EGFR WT cells (setting [2]), 17.9 nM with BaF3_EGFR LR/CS cells (setting [3]) and 35.4 nM in the assay on BaF3_EGFR d19/CS cells (setting [4]).
Taken in the same sequence, the figures for `N#CCCc1cccc(-c2cc3c(-c4cn(C5CS(=O)(=O)C5)nc4-c4ccc(F)cc4)ncnc3o2)c1` [Example 232, 3-(3-{4-[1-(1,1-dioxo-1λ6-thietan-3-yl)-3-(4-fluorophenyl)-1H-pyrazol-4-yl]furo[2,3-d]pyrimidin-6-yl}phenyl)propanenitrile] were 0.23 nM, 301 nM, 9.42 nM and 9.99 nM.
For `Cc1cnc(-c2cc3c(-c4cn(C5CS(=O)(=O)C5)nc4-c4ccc(F)cc4)ncnc3o2)o1` [Example 234, 3-{3-(4-fluorophenyl)-4-[6-(5-methyl-1,3-oxazol-2-yl)furo[2,3-d]pyrimidin-4-yl]-1H-pyrazol-1-yl}-1λ6-thietane-1,1-dione] the same measures were 3.6 nM, 2120 nM, 438 nM and 309 nM.
For `O=S1(=O)CC(n2cc(-c3ncnc4oc(-c5ccsn5)cc34)c(-c3ccc(F)cc3)n2)C1` [Example 235, 3-{3-(4-fluorophenyl)-4-[6-(1,2-thiazol-3-yl)furo[2,3-d]pyrimidin-4-yl]-1H-pyrazol-1-yl}-1λ6-thietane-1,1-dione] the same measures were 0.24 nM, 837 nM, 41.8 nM and 41.3 nM.
Turning to `Cc1nc(-c2cc3c(-c4cn(C5CS(=O)(=O)C5)nc4-c4ccc(F)cc4)ncnc3o2)cs1` [Example 236, 3-{3-(4-fluorophenyl)-4-[6-(2-methyl-1,3-thiazol-4-yl)furo[2,3-d]pyrimidin-4-yl]-1H-pyrazol-1-yl}-16-thietane-1,1-dione], the IC50 was 0.16 nM in assay [1], 924 nM in the assay with Ba/F3_EGFR WT cells (setting [2]), 11.2 nM in the assay on BaF3_EGFR LR/CS cells (setting [3]) and 17.1 nM in the assay on BaF3_EGFR d19/CS cells (setting [4]).
Taken in the same sequence, the figures for `CNC(=O)c1cncc(-c2cc3c(-c4cn(C5CS(=O)(=O)C5)nc4-c4ccc(F)cc4)ncnc3o2)c1` [Example 239, 5-{4-[1-(1,1-dioxo-1λ6-thietan-3-yl)-3-(4-fluorophenyl)-1H-pyrazol-4-yl]furo[2,3-d]pyrimidin-6-yl}-N-methylpyridine-3-carboxamide] were 1.73 nM, 12400 nM, 1500 nM and 1280 nM.
Taken in the same sequence, the figures for `Cc1ccc(-c2cc3c(-c4cn(C5CS(=O)(=O)C5)nc4-c4ccc(F)cc4)ncnc3o2)c(C)n1` [Example 240, 3-{4-[6-(2,6-dimethylpyridin-3-yl)furo[2,3-d]pyrimidin-4-yl]-3-(4-fluorophenyl)-1H-pyrazol-1-yl}-16-thietane-1,1-dione] were 0.34 nM, 7560 nM, 57.9 nM and 66.4 nM.
